Experimental data reported in patent publication US7396939B2, “3-cyclopropyl-4-(3-amino-2-methylbenzoyl)pyrazoles and their use as herbicides” (Bayer CropScience GmbH, priority 2004, dated 2008).
Read-outs that look alike come from different tables or passages of the source.

Legend:
Type in all cases: in vivo
[1] = system: Echinochloa crus galli (ECHCG); test: Post-emergence action against harmful plants; details: post-emergence application
Description: (§1) Seeds of monocotyledonous and dicotyledonous harmful plants and seeds of corn, soybean and wheat are placed into sandy loam in cardboard pots, covered with soil and grown in the greenhouse under good growth conditions. Two to three weeks after sowing the harmful plants and the crop plants are treated in the three-leaf stage. The compounds according to the invention and the prior-art compounds, formulated as wettable powders or emulsion concentrates, are sprayed onto the green plant parts at an application rate of 600 to 800 l of water/ha (converted) in one of the dosages given in tables 1 to 10. After the test plants have remained in the greenhouse under optimum growth conditions for 3 to 4 weeks, the effect of the compounds is rated in comparison to compounds disclosed in the prior art.

[2] = system: Digitaria sanguinalis (DIGSA); test: Post-emergence action against harmful plants; details: post-emergence application, 80 g of a.i./ha, Comparative Table 1
Description: as §1

[3] = system: Matricaria inodora (MATIN); test: Post-emergence action against harmful plants; details: for pest or weed control at 80 g/ha / pest or weed control at 320 g/ha: Tripleurospermum inodorum, read-out: Herbicidal action MATIN; for pest or weed control at 320 g/ha / Herbicidal action MATIN: 320 g of a.i./ha; for Herbicidal action MATIN: Comparative Table 10
Description: as §1

Viola tricolor (VIOTR) = test: Post-emergence action against harmful plants; details: post-emergence application, 80 g of a.i./ha, Comparative Table 1
Description: as §1

Zea mays (corn) (ZEAMX) [4] = test: Post-emergence damage of crop plants; details: post-emergence application
Description: as §1

Veronica persica (VERPE) = test: Post-emergence action against harmful plants; details: post-emergence application
Description: as §1

Galium aparine (GALAP) [5] = test: Post-emergence action against harmful plants; details: post-emergence application
Description: as §1

[6] = system: Glycine max (soybean) (GLXMA); test: Post-emergence damage of crop plants; details: post-emergence application
Description: as §1

[7] = system: Oryza sativa (rice) (ORYSA); test: Damage of rice under paddy rice conditions; details: post-emergence application
Description: (§2) Rice plants and harmful plants typical in rice crops are grown in the greenhouse under paddy rice conditions (water level: 2-3 cm). After the treatment with the compounds according to the invention and the prior-art compounds, the test plants are placed in the greenhouse under optimum growth conditions and kept like this during the entire test. About three weeks after the application, evaluation is carried out by visual scoring of the damage to the plants.

Stellaria media (STEME) = test: Post-emergence action against harmful plants; details: post-emergence application, 80 g of a.i./ha
Description: as §1

Galium aparine (GALAP) [8] = test: Pre-emergence action against harmful plants; details: pre-emergence application, 320 g of a.i./ha, Comparative Table 7
Source text: (§3) Seeds of monocotyledonous and dicotyledonous harmful plants and seeds of corn, soybean and wheat are placed into sandy loam in cardboard pots and covered with soil. The compounds according to the invention and the prior-art compounds, formulated as wettable powders or emulsion concentrates, are then applied to the surface of the covering soil as an aqueous suspension or emulsion at an application rate of 600 to 800 l of water/ha (converted) in one of the dosages given in tables 1 to 10. After the treatment, the pots are placed in a greenhouse and kept under good growth conditions for the harmful plants and crop plants. Visual scoring of plant or emergence damage is carried out after the test plants have emerged after an experimental period of 3 to 4 weeks.

Avena fatua (AVEFA) = test: Post-emergence action against harmful plants; details: post-emergence application, 320 g of a.i./ha, Comparative Table 8
Description: as §1

Zea mays (corn) (ZEAMX) [9] = test: Pre-emergence damage of crop plants; details: pre-emergence application, 320 g of a.i./ha, Comparative Table 7
Source text: as §3

[10] = system: Pharbitis purpureum (PHBPU); test: Post-emergence action against harmful plants; details: post-emergence application, 320 g of a.i./ha
Description: as §1

[11] = system: Triticum aestivum (wheat) (TRZAS); test: Post-emergence damage of crop plants; details: post-emergence application, 320 g of a.i./ha, Comparative Table 6
Description: as §1

Setaria viridis (SETVI) = test: Action against harmful plants in the rice test; details: post-emergence application, 320 g of a.i./ha, Comparative Table 5
Description: as §2

[12] = 80 g of a.i./ha, Comparative Table 1
[13] = post-emergence application, 80 g of a.i./ha, Comparative Table 1
[14] = 20 g of a.i./ha, Comparative Table 2
[15] = post-emergence application, 80 g of a.i./ha, Comparative Table 3
[16] = 80 g of a.i./ha, Comparative Table 3
[17] = post-emergence application, Comparative Table 8
[18] = 320 g of a.i./ha, Comparative Table 8
[19] = 320 g of a.i./ha, Comparative Table 10
[20] = post-emergence application, Comparative Table 9
[21] = 320 g of a.i./ha, Comparative Table 9
[22] = 320 g of a.i./ha, Comparative Table 6
[23] = post-emergence application, Comparative Table 6
[24] = 320 g of a.i./ha, Comparative Table 5
[25] = 80 g of a.i./ha, Comparative Table 4

## CCCNc1c(S(C)(=O)=O)ccc(C(=O)c2c(C3CC3)nn(C)c2O)c1C [No. 3]
[1]; [12]
  Herbicidal action ECHCG: 90%
[2]
  Herbicidal action DIGSA: 90%
[3]; [13]
  pest or weed control at 80 g/ha: 70%
Viola tricolor (VIOTR)
  Herbicidal action VIOTR: 90%
Zea mays (corn) (ZEAMX) [4]; [12]
  Damage to the crop plants ZEAMX: 30%

## CCCCNc1c(S(C)(=O)=O)ccc(C(=O)c2c(C3CC3)nn(C)c2O)c1C [No. 4]
Veronica persica (VERPE); [14]
  Herbicidal action VERPE: 60%
Galium aparine (GALAP) [5]; [14]
  Herbicidal action GALAP: 80%
[6]; [14]
  Damage to the crop plants GLXMA: 0%
[7]; [14]
  Damage to the crop plants ORYSA: 0%

## C=CCNc1c(S(C)(=O)=O)ccc(C(=O)c2c(C3CC3)nn(C)c2O)c1C [No. 5]
[3]; [15]
  pest or weed control at 80 g/ha: 50%
Stellaria media (STEME); Comparative Table 3
  Herbicidal action STEME: 100%
Galium aparine (GALAP) [5]; [16]
  Herbicidal action GALAP: 80%
[6]; [16]
  Damage to the crop plants GLXMA: 0%
Zea mays (corn) (ZEAMX) [4]; [16]
  Damage to the crop plants ZEAMX: 10%

## COCCNc1c(S(C)(=O)=O)ccc(C(=O)c2c(C3CC3)nn(C)c2O)c1C [No. 9]
Galium aparine (GALAP) [8]
  Herbicidal action GALAP: 80%
[3]; [17]
  pest or weed control at 320 g/ha: 80%
Avena fatua (AVEFA)
  Herbicidal action AVEFA: 70%
[6]; [18]
  Damage to the crop plants GLXMA: 20%
Zea mays (corn) (ZEAMX) [4]; [18]
  Damage to the crop plants ZEAMX: 0%
Zea mays (corn) (ZEAMX) [9]
  Damage to the crop plants ZEAMX: 0%

## CCOCCNc1c(S(C)(=O)=O)ccc(C(=O)c2c(C3CC3)nn(C)c2O)c1C [No. 10]
[1]; [19]
  Herbicidal action ECHCG: 100%
[3]; [20]
  pest or weed control at 320 g/ha: 100%
[3]; post-emergence application
  Herbicidal action MATIN: 100%
Veronica persica (VERPE); [21]
  Herbicidal action VERPE: 100%
Veronica persica (VERPE); [19]
  Herbicidal action VERPE: 100%
[10]; Comparative Table 9
  Herbicidal action PHBPU: 100%
[10]; Comparative Table 10
  Herbicidal action PHBPU: 100%
[6]; [21]
  Damage to the crop plants GLXMA: 20%
[6]; [19]
  Damage to the crop plants GLXMA: 20%
Zea mays (corn) (ZEAMX) [4]; [19]
  Damage to the crop plants ZEAMX: 0%

## Cc1c(C(=O)c2c(C3CC3)nn(C)c2O)ccc(S(C)(=O)=O)c1N1CCCC1 [No. 14]
[1]; [22]
  Herbicidal action ECHCG: 80%
[3]; [23]
  pest or weed control at 320 g/ha: 50%
[6]; [22]
  Damage to the crop plants GLXMA: 10%
[11]
  Damage to the crop plants TRZAS: 0%
Setaria viridis (SETVI)
  Herbicidal action SETVI: 100%
[7]; [24]
  Damage to the crop plants ORYSA: 10%

## Cc1c(C(=O)c2c(C3CC3)nn(C)c2O)ccc(S(C)(=O)=O)c1N1CCCCC1 [No. 15]
[3]; post-emergence
  pest or weed control at 80 g/ha: 60%
Stellaria media (STEME); Comparative Table 4
  Herbicidal action STEME: 70%
Zea mays (corn) (ZEAMX) [4]; [25]
  Damage to the crop plants ZEAMX: 0%

## CCOCCNc1c(S(C)(=O)=O)ccc(C(=O)c2c(C)nn(C)c2O)c1C [S1]
[3]; [20]
  pest or weed control at 320 g/ha: 60%
Veronica persica (VERPE); [21]
  Herbicidal action VERPE: 100%
[10]; Comparative Table 9
  Herbicidal action PHBPU: 90%
[6]; [21]
  Damage to the crop plants GLXMA: 90%

## CCCNc1c(S(C)(=O)=O)ccc(C(=O)c2c(C)nn(C)c2O)c1C [S2]
[1]; [12]
  Herbicidal action ECHCG: 80%
[2]
  Herbicidal action DIGSA: 80%
[3]; [13]
  pest or weed control at 80 g/ha: 30%
Viola tricolor (VIOTR)
  Herbicidal action VIOTR: 80%
Zea mays (corn) (ZEAMX) [4]; [12]
  Damage to the crop plants ZEAMX: 60%

## CCCCNc1c(S(C)(=O)=O)ccc(C(=O)c2c(C)nn(C)c2O)c1C [S3]
Veronica persica (VERPE); [14]
  Herbicidal action VERPE: 20%
Galium aparine (GALAP) [5]; [14]
  Herbicidal action GALAP: 40%
[6]; [14]
  Damage to the crop plants GLXMA: 20%
[7]; [14]
  Damage to the crop plants ORYSA: 30%

## C=CCNc1c(S(C)(=O)=O)ccc(C(=O)c2c(C)nn(C)c2O)c1C [S4]
[3]; [15]
  pest or weed control at 80 g/ha: 30%
Stellaria media (STEME); Comparative Table 3
  Herbicidal action STEME: 100%
Galium aparine (GALAP) [5]; [16]
  Herbicidal action GALAP: 80%
[6]; [16]
  Damage to the crop plants GLXMA: 50%
Zea mays (corn) (ZEAMX) [4]; [16]
  Damage to the crop plants ZEAMX: 30%

## Cc1nn(C)c(O)c1C(=O)c1ccc(S(C)(=O)=O)c(N2CCCCC2)c1C [S5]
[3]; post-emergence application, 80 g of a.i./ha, Comparative Table 4
  pest or weed control at 80 g/ha: 40%
Stellaria media (STEME); Comparative Table 4
  Herbicidal action STEME: 20%
Zea mays (corn) (ZEAMX) [4]; [25]
  Damage to the crop plants ZEAMX: 10%

## CCn1nc(C)c(C(=O)c2ccc(S(C)(=O)=O)c(N3CCCC3)c2C)c1O [S6]
[1]; [22]
  Herbicidal action ECHCG: 50%
[3]; [23]
  pest or weed control at 320 g/ha: 0%
[6]; [22]
  Damage to the crop plants GLXMA: 20%
[11]
  Damage to the crop plants TRZAS: 10%
Setaria viridis (SETVI)
  Herbicidal action SETVI: 90%
[7]; [24]
  Damage to the crop plants ORYSA: 20%

## CCn1nc(C)c(C(=O)c2ccc(S(C)(=O)=O)c(NCCOC)c2C)c1O [S7]
Galium aparine (GALAP) [8]
  Herbicidal action GALAP: 70%
[1]; [19]
  Herbicidal action ECHCG: 90%
[3]; [17]
  pest or weed control at 320 g/ha: 70%
[3]; post-emergence application
  Herbicidal action MATIN: 70%
Veronica persica (VERPE); [19]
  Herbicidal action VERPE: 90%
[10]; Comparative Table 10
  Herbicidal action PHBPU: 40%
Avena fatua (AVEFA)
  Herbicidal action AVEFA: 50%
[6]; [18]
  Damage to the crop plants GLXMA: 60%
[6]; [19]
  Damage to the crop plants GLXMA: 60%
Zea mays (corn) (ZEAMX) [4]; [18]
  Damage to the crop plants ZEAMX: 20%
Zea mays (corn) (ZEAMX) [4]; [19]
  Damage to the crop plants ZEAMX: 20%
Zea mays (corn) (ZEAMX) [9]
  Damage to the crop plants ZEAMX: 20%
